We go through ten molecules from PubChem BioAssay (NCI).

SMILES strings stand for the structures. Values joined by “and” are separate entries in the source; they are usually repeats but may differ in a detail not shown here. Equal entries are not always repeated.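 Five concentrations, 48 hours, 96-well plates. Here, GI50 denotes the concentration required for 50% inhibition of growth. TGI denotes the concentration required for complete inhibition of growth.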

Some test systems named below: SW-620 colon; MDA-MB-231 breast; MCF7 breast; SK-OV-3 ovarian; SNB-75 CNS; A549 NSCLC; NCI-H226 lung; SR leukemia; UACC-257 melanoma; NCI-H460 lung.
Assay in all cases: NCI tumour cell line growth inhibition, 48 h

For `CC(C)CC(=O)CC(O)C(Cl)(Cl)Cl` (stereo not drawn), the TGI in the experiment on SW-620 colon, in the experiment with MDA-MB-231 breast, in the experiment on MCF7 breast, in the experiment on SK-OV-3 ovarian, with SNB-75 CNS and in the experiment on A549 NSCLC was greater than 100 µM in each case. For the same molecule, the TGI in the experiment on NCI-H226 lung, in the experiment with SR leukemia and with UACC-257 melanoma was greater than 100 µM each time.

Turning to `Clc1ccc(Nc2nc3ccccc3c3occc23)cc1`, the GI50 in the experiment with SW-620 colon was 8.04 µM; with MDA-MB-231 breast, 9.1 µM; in the experiment on MCF7 breast it was 10.9 µM; in the experiment on SK-OV-3 ovarian it was 8.15 µM; in the experiment with A549 NSCLC, 8.13 µM; in the experiment on NCI-H460 lung it was 13 µM. Also, the GI50 in the experiment on SR leukemia was 23.2 µM; in the experiment on UACC-257 melanoma, 10.4 µM. The TGI in the experiment with SW-620 colon is 14.8 µM; in the experiment with MDA-MB-231 breast, 24.7 µM; in the experiment on MCF7 breast it was greater than 50 µM; with SK-OV-3 ovarian, 16 µM; in the experiment on A549 NSCLC, 16.8 µM; in the experiment on NCI-H460 lung, 35.2 µM. The TGI in the experiment with SR leukemia was greater than 50 µM; in the experiment on UACC-257 melanoma, 19.2 µM.

Regarding `CC(C)(C)n1cc(-c2ccnc(NCCNS(=O)(=O)c3cccc4ccccc34)c2)c(-c2cccc(F)c2)n1`, the GI50 is 16.6 µM in the experiment with SW-620 colon; 24.2 µM in the experiment on MDA-MB-231 breast; 16.3 µM in the experiment with MCF7 breast; 26 µM in the experiment with SK-OV-3 ovarian; 16.7 µM in the experiment on A549 NSCLC; 12.2 µM with NCI-H226 lung. Also, the GI50 was 20 µM in the experiment with NCI-H460 lung, 9.27 µM in the experiment with SR leukemia and 25 µM in the experiment with UACC-257 melanoma. Further, the TGI was 42.3 µM in the experiment with SW-620 colon; greater than 100 µM in the experiment with MDA-MB-231 breast; 59.6 µM with MCF7 breast; greater than 100 µM in the experiment on SK-OV-3 ovarian; 76.6 µM in the experiment with A549 NSCLC; 43.4 µM with NCI-H226 lung. For the same molecule, the values for the TGI with NCI-H460 lung, in the experiment on SR leukemia and with UACC-257 melanoma were 56.7 µM, greater than 100 µM and 86.7 µM, respectively.

In the case of `CS(=O)(=O)CS(=O)CS(=O)CS(=O)CC(NC(=O)CCC(N)C(=O)O)C(=O)O` (stereo not drawn), the TGI with SW-620 colon, with MDA-MB-231 breast, with MCF7 breast, in the experiment with SNB-75 CNS, in the experiment with A549 NSCLC and in the experiment on NCI-H460 lung was greater than 100 µM throughout. Moreover, the TGI in the experiment with SR leukemia and in the experiment on UACC-257 melanoma was greater than 100 µM each time.

Consider `c1ccc2c(c1)ccc1c3ccccc3ccc21`, for which the GI50 in the experiment with SW-620 colon, in the experiment with MDA-MB-231 breast, in the experiment with MCF7 breast, in the experiment on SK-OV-3 ovarian, in the experiment on SNB-75 CNS and with A549 NSCLC was greater than 50 µM each time. Moreover, the GI50 in the experiment on NCI-H226 lung, in the experiment on NCI-H460 lung and with UACC-257 melanoma was greater than 50 µM each time. Moreover, the TGI in the experiment on SW-620 colon, in the experiment with MDA-MB-231 breast, with MCF7 breast, in the experiment on SK-OV-3 ovarian, in the experiment on SNB-75 CNS and in the experiment on A549 NSCLC was greater than 50 µM throughout. In addition, the TGI with NCI-H226 lung, in the experiment on NCI-H460 lung and in the experiment with UACC-257 melanoma was greater than 50 µM each time.

As for `COc1ccc(Cn2cc(Cn3c(=O)c(-c4nc5ccccc5[nH]4)cc4ccccc43)nn2)c(OC)c1OC`, the GI50 with SW-620 colon is 0.223 µM and 0.293 µM; in the experiment on MDA-MB-231 breast, 0.292 µM and 0.451 µM; in the experiment on MCF7 breast it was 0.0789 µM and 0.0495 µM; in the experiment on SNB-75 CNS, 0.0354 µM; with A549 NSCLC, 0.213 µM and 0.477 µM; in the experiment with NCI-H226 lung it was 0.338 µM. Moreover, the GI50 is 0.18 µM in the experiment with NCI-H460 lung; 0.291 µM with SR leukemia; 0.796 µM and 2.22 µM with UACC-257 melanoma. The TGI is 50 µM and > 100 µM in the experiment on SW-620 colon; 1.54 µM and 3.07 µM with MDA-MB-231 breast; 0.432 µM in the experiment on SNB-75 CNS; greater than 100 µM in the experiment on NCI-H226 lung; 0.893 µM in the experiment on NCI-H460 lung; greater than 100 µM in the experiment on SR leukemia.

With `O=[N+]([O-])c1ccc(O)c2ncccc12`, the TGI was > 100 µM and 18.6 µM in the experiment with SW-620 colon; > 100 µM and 20.6 µM with MDA-MB-231 breast; > 100 µM and 11.5 µM with MCF7 breast; > 100 µM and 15.7 µM with SK-OV-3 ovarian; > 100 µM and 26 µM in the experiment on SNB-75 CNS; > 100 µM and 12.9 µM in the experiment with A549 NSCLC. Moreover, the TGI in the experiment with NCI-H226 lung is > 100 µM and 18.6 µM; with NCI-H460 lung it was > 100 µM and 11.4 µM; in the experiment with SR leukemia it was 9.29 µM. For the same molecule, the GI50 in the experiment on MDA-MB-231 breast is 38.4 µM and 4.4 µM; in the experiment with MCF7 breast, 23.1 µM and 3.39 µM; with SR leukemia, 3.01 µM.

Consider `C=CCNc1cccc2c1C(=O)c1ccccc1C2(O)CC=C` (stereo not drawn), for which the GI50 is 22.2 µM with SW-620 colon; 12.3 µM in the experiment on MDA-MB-231 breast; 66.7 µM in the experiment with MCF7 breast; 17 µM in the experiment on SNB-75 CNS; 23.7 µM in the experiment on A549 NSCLC; 20.2 µM in the experiment on NCI-H226 lung. The GI50 is 56 µM with NCI-H460 lung, 36.8 µM in the experiment on SR leukemia and 15 µM with UACC-257 melanoma. Also, the TGI is 55.1 µM with SW-620 colon; 28.3 µM with MDA-MB-231 breast; greater than 100 µM in the experiment with MCF7 breast; 45.7 µM in the experiment with SNB-75 CNS; 69 µM in the experiment on A549 NSCLC; 49.2 µM in the experiment on NCI-H226 lung. The TGI with NCI-H460 lung was greater than 100 µM; in the experiment with SR leukemia, greater than 100 µM; in the experiment with UACC-257 melanoma, 39 µM.

For the molecule `COc1ccc(-c2c(C#N)c(N)nc3c2CCCc2ccc(F)cc2-3)cc1OC`, the TGI in the experiment with SW-620 colon was greater than 38.8 µM; in the experiment on MDA-MB-231 breast, 0.758 µM; in the experiment with MCF7 breast, greater than 100 µM; in the experiment on SK-OV-3 ovarian, greater than 92.3 µM; in the experiment on SNB-75 CNS it was greater than 100 µM; in the experiment on A549 NSCLC, greater than 54 µM. Besides, the TGI in the experiment on NCI-H226 lung is greater than 100 µM; with NCI-H460 lung, greater than 52.6 µM; with UACC-257 melanoma, greater than 78.5 µM. The GI50 in the experiment with MDA-MB-231 breast is less than 0.0399 µM; with MCF7 breast it was less than 0.01 µM; in the experiment with SK-OV-3 ovarian, 4.27 µM; in the experiment with SNB-75 CNS, 1.36 µM; in the experiment with A549 NSCLC, 0.174 µM; in the experiment on NCI-H226 lung, less than 0.01 µM. In addition, the GI50 with NCI-H460 lung is 0.0163 µM.

Turning to `COc1ccc2sc3c(NCCCNCCO)nc4ccccc4c3c(=O)c2c1`, the GI50 with SW-620 colon was 1.61 µM; in the experiment on MDA-MB-231 breast it was 1.48 µM; in the experiment on MCF7 breast it was 1.54 µM; in the experiment with SNB-75 CNS, 1.82 µM; with A549 NSCLC it was 1.68 µM; with NCI-H226 lung, 2.09 µM. For the same molecule, the GI50 was 1.51 µM in the experiment on NCI-H460 lung, 1.97 µM with SR leukemia and 1.93 µM in the experiment with UACC-257 melanoma. Further, the TGI with SW-620 colon was 3.13 µM; with MDA-MB-231 breast, 2.95 µM; with MCF7 breast, 3.1 µM; with SNB-75 CNS, 3.34 µM; in the experiment with A549 NSCLC it was 3.31 µM; with NCI-H226 lung, 3.75 µM. Besides, the figures for the TGI with NCI-H460 lung, in the experiment with SR leukemia and with UACC-257 melanoma were 2.96 µM, 5.61 µM and 3.99 µM, respectively.
